# From patent US11104683B2, “Thioglycoluril compound, and method for producing same” (NISSAN CHEMICAL CORPORATION, priority 2016, dated 2021)
# Test: Solubility in solvents (PGME or PGMEA) commonly used in semiconductor device production
# Assay type: physicochemical
# Conditions: for Solubility (g/100 g-PGMEA): solvent propylene glycol 1-monomethyl ether 2-acetate (PGMEA); for Solubility (g/100 g-PGME): solvent propylene glycol 1-monomethyl ether (PGME)
# Protocol: In order to examine the solubilities of TMOM-TGU produced in Example 2, TMOM-DTGU produced in Example 4, and TMOM-GU as Comparative Example, these compounds were dissolved in propylene glycol 1-monomethyl ether (PGME) or propylene glycol 1-monomethyl ether 2-acetate (PGMEA), each of which is a solvent commonly used in, for example, production processes for semiconductor devices.
Compound,Solubility (g/100 g-PGMEA),Solubility (g/100 g-PGME),"solubility in a solvent (in words) (conclusion from Table 1 (PGME, PGMEA))"
"COCN1C(=O)N(COC)C2C1N(COC)C(=O)N2COC (stereo not shown) [Comparative Example, 1,3,4,6-tetrakis(methoxymethyl)glycoluril, reference compound]",12.5,20,–
"COCN1C(=O)N(COC)C2C1N(COC)C(=S)N2COC (stereo not shown) [Example 2, 1,3,4,6-tetrakis(methoxymethyl)monothioglycoluril]",100,100,particularly excellent solubility
"COCN1C(=S)N(COC)C2C1N(COC)C(=S)N2COC (stereo not shown) [Example 4, 1,3,4,6-tetrakis(methoxymethyl)dithioglycoluril]",25,20,–
